For assay [1], the target named is T1, Frutapin (FTP), recombinant (Artocarpus altilis, UniProt A0A2D0TC52).
T1 construct: full-length FTP (450 bp clone from leaf cDNA, codon-optimised ORF), pET SUMO in E. coli BL21, His-SUMO tag cut off with ULP1
As to the kind of experiment: X-ray co-crystal structure, […] Å. As to conditions: co-crystallised with 20 mM mannose, glycerol removed; carbohydrate-binding site of all four monomers.

In assay [2] the target is T1, Frutapin (FTP), recombinant. Put plainly: inhibition of haemagglutination of red blood cells, double serial dilution. It is filed as cell-based. As to conditions: 37 °C, 1 h, visual read-out, carbohydrate-binding site.
Assay [3] has as its target Frutapin (FTP), recombinant, mannose-binding lectin from Artocarpus incisa (breadfruit) (Artocarpus incisa (breadfruit)). Put plainly: native gel or EMSA; native gel electrophoresis of purified FTP after removal of the SUMO tag; size from a plot of Rf against log10 (MWt).
In assay [4] the target is T1, Frutapin (FTP), recombinant. Put plainly: X-ray co-crystal structure, […] Å. As to conditions: co-crystallised with 100 mM glucose, glycerol removed; carbohydrate-binding site of all four monomers.

The source of these data is paper PMC5520216, “Frutapin, a lectin from Artocarpus incisa (breadfruit): cloning, expression and molecular insights” (Bioscience Reports, 2017).

Broadly, the stoichiometry N is the number of molecules, sites or subunits per partner or assembly.

T1 sequence (A0A2D0TC52 entry or part of it): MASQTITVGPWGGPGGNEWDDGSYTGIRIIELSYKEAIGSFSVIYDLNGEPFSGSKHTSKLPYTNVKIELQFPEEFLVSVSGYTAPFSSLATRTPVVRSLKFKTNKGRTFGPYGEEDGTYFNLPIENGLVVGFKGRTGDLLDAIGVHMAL

In the case of `OC[C@H]1O[C@H](O)[C@@H](O)[C@@H](O)[C@@H]1O` [α-D-mannose], the “X-ray co-crystal structure, 1.70 Å” value in assay [1] was “FTP was also co-crystallized with mannose and glucose”. Consider `OC[C@H]1OC(O)[C@@H](O)[C@@H](O)[C@@H]1O` (some centres unmarked) [mannose], for which the inhibitory sugar concentration in assay [2] (12.4 µg/ml FTP) is given as 6.25 mM. In the case of `OC[C@H]1OC(O)[C@H](O)[C@@H](O)[C@@H]1O` (some centres unmarked) [glucose], the inhibitory sugar concentration in assay [2] (42.8 µg/ml FTP) came to 100 mM. In the case of “Frutapin (FTP), recombinant, mannose-binding lectin from Artocarpus incisa (breadfruit) (natural protein)”, the stoichiometry N in assay [3] amounted to 4. Take `OC[C@H]1O[C@H](O)[C@H](O)[C@@H](O)[C@@H]1O` [α-D-glucose]: the “X-ray co-crystal structure, 1.60 Å” value in assay [4] was “FTP was also co-crystallized with mannose and glucose”.
